# Where “and” joins values, the source holds several entries; their conditions need not be identical. Equal entries are not always repeated.
# Assays:
# squirrel monkey = conditions: cited abstract (reference 2); cited from earlier work
# rabbits [1] = assay: Antipyretic (acetaminophen, indomethacin, aspirin) with AcMur-ala-igln in rabbits, SWS and temperature; format: in vivo; conditions: for hourly % SWS (mean ±SEM): FIG. 5; for suppression of the pyrogenic (febrile) effects of AcMur-ala-igln by the antipyretic: AcMur-ala-igln delivered intravenously in rabbits
# Experimental: (§1) Acetaminophen (Sigma) was dissolved in sterile pyrogen-free saline.
# For this reason, the less toxic acetaminophen was used to suppress the pyrogenic effects of AcMur-ala-igln.
# In FIG. 5, the symbols mean the following: , AAP alone; , AAP followed by 120 μg of AcMur-ala-igln intravanously at time zero. Each value is mean ±SEM of six assays in six rabbits. In A, the average of the individual increases (ΔT values) in rectal temperature induced by AcMur-ala-igln together with AAP is compared with that induced by AAP alone in each of six rabbits.
# cats [2] = assay: Intraventricular infusion in cats, SWS, REM sleep and brain temperature; format: in vivo, cat; conditions: intraventricular 200-500 pmol, four cats
# Experimental: as §1
# Each of four cats was infused intraventricularly one or more times with AcMur-ala-igln or AcMur-ala-igln-lys (200-500 pmol). The responses were more complex than those in rabbits. […] Only after the febrile response had reached its peak did the cats start to sleep for abnormally long periods in deep stage II SWS alternating with periods of REM sleep. The SWS and temperature responses of one cat to 250 pmol of AcMur-ala-igln-lys delivered intraventricularly during 15 min prior to start of recording is shown in FIG. 3. […] A similar delay in the onset of excess SWS was noted by Garcia-Arraras (12) after infusion of natural sleep factor in cats.
# Excess SWS induced by AcMur-ala-igln-lys lasted for 3-8 hr after infusion. (A) - - - , Control=37.7 plus or minus 0.2° C. (B) - - - , Control=27 plus or minus 5%. Similar responses were observed following one or more infusions of AcMur-ala-igln or AcMur-ala-igln-lys in each of four cats.
# rabbits [3] = assay: Intraventricular infusion in rabbits, EEG slow-wave sleep (SWS); conditions: for % SWS, 6 hr post infusion, Expt / % SWS Expt.: hr 2-6 after infusion; for % SWS, 6 hr post infusion, Expt: mean ± SEM or range
# Experimental: Calibrated glass bead thermistors (Fenwall; 1.2-mm outside diameter, 50 omega/°C.) were implanted through burr holes in frontal bone: the thermistor leads were buried in a mound of dental cement that also insulated the screw electrodes and supported a 9-pin miniature electrical connector. In some experiments, the rectal temperatures were measured at intervals by using a calibrated thermistor probe; temperatures estimated from the implanted brain thermistors were generally within 0.3° C. of simultaneously recorded rectal temperature.
# New Zealand rabbits (male, 3-5 kg) or domestic cats were adapted to the infusion cages in a temperature-controlled room (21°-2° C.) on a 12:12 light/dark cycle. Intraventricular infusions or systemic injections were carried out between 0800 and 1000 hr and were followed by 6 or more hr of recording without disturbing the animals.
# (§3) EEG, electro-oculogram, and bodily movements were recorded on Grass polygraphs. The amplitude of EEG slow waves was recorded as the rms-rectified output from a 0.5- to 4-Hz bandpass filter (Bunco Electronics, Sharon, (T); the rms component was integrated and the integral was printed on tape every 2 min, thus providing an objective measure of the product of amplitude and duration of EEG slow waves. Each record was also analyzed visually for duration of SWS in rabbits and for both SWS and REM sleep in cats. The infusion and recording systems and examples of analysis of records are described in 1, 12, 15.
# rabbits [4] = assay: Intraperitoneal injection / stomach tube administration in rabbits, sleep response; format: in vivo, rabbit; conditions: two rabbits, intraperitoneal injection / stomach tube (5 mg/kg)
# Experimental: In two rabbits, sleep responses were recorded after intraperitoneal injection of AcMur-ala-igln by stomach tube (5 mg/kg).
# rabbits [5] = assay: Intravenous injection in rabbits, SWS and side effects
# Experimental: New Zealand rabbits (male, 3-5 kg) or domestic cats were adapted to the infusion cages in a temperature-controlled room (21°-2° C.) on a 12:12 light/dark cycle. Intraventricular infusions or systemic injections were carried out between 0800 and 1000 hr and were followed by 6 or more hr of recording without disturbing the animals. […] Indomethacin for intravenous injection was dissolved in a small amount of EtOH and diluted with 150 mM NaHCO3 to a concentration of 5 mg/ml. Acetaminophen (Sigma) was dissolved in sterile pyrogen-free saline.
# as §3
# Each value is mean ±SEM of 11 assays in eight rabbits.
# rabbits [6] = assay: Brain/body temperature (pyrogenic response) after intraventricular infusion in rabbits; format: in vivo, rabbit; conditions: for ΔTmax, maximum increase in temperature: intraventricular, brain temperature, single rabbits, listed as AcMur--Ala--iGln
# Experimental: as §1
# cats [7] = assay: Toxic reactions to indomethacin alone in cats; format: in vivo, cat; conditions: doses as low as 1 mg/kg
# Experimental: (§2) The time course of the pyrogenic response to AcMur-ala-igln was sometimes quite different from that of the somnogenic response and, in some animals, the natural muramyl peptide isolated from urine induced substantial excess SWS without significant alteration of temperature. […] In preliminary experiments, indomethacin was used as an antipyretic because Parant et al. (7) had shown that this drug (in doses of 40 mg/kg) was effective in blocking the pyrogenic response to intravanously administered AcMur-ala-igln. […] For this reason, the less toxic acetaminophen was used to suppress the pyrogenic effects of AcMur-ala-igln. The results for six rabbits injected intravanously with AcMur-ala-igln at 120 μg/kg 30 min after intravanous injection of acetaminophen at 10 mg/kg are summarized in FIG. 5. It is clear that, under these conditions a substantial somnogenic effect was obtained for 3 to 4 hr with only a weak associated febrile response. In some animals, there was no significant increase in temperature during the sleep response.
# rabbits [8] = assay: Toxic reactions to indomethacin alone in rabbits; format: in vivo, rabbit; conditions: doses as low as 1 mg/kg
# Experimental: as §2
# [9] = intraventricular, dose 1.0 nmol
# [10] = much smaller doses delivered intraventricularly
# [11] = intraventricular, dose 0.2 nmol
# [12] = intraventricular, dose 0.5 nmol
# [13] = intraventricular, dose 2.0 nmol
structure (smiles),measurement,setting,value
"CC(=O)N[C@@H]1[C@@H](O[C@H](C)C(=O)N[C@@H](C)C(=O)N[C@H](CCC(=O)O)C(N)=O)[C@H](O)[C@@H](CO)O[C@H]1O [MDP, 2-(2-acetamido-2-desoxy-3-O-D-glucopyranosyl)-D-propionyl-L-alanyl-D-isoglutamine]",effect on non-REM and REM sleep,squirrel monkey,induces non-REM but not REM sleep
same,hourly % SWS (mean ±SEM),"rabbits [1]; AAP 10 mg/kg i.v. followed 30 min later by AcMur-ala-igln 120 μg i.v., six rabbits",67±3%
same,time after which toxic reactions developed,rabbits [1]; AcMur-ala-igln 120 μg/kg i.v. after acetaminophen 10 mg/kg i.v.,about 4 hr
same,"average ΔT, rectal temperature","rabbits [1]; AcMur-ala-igln i.v. with AAP, six rabbits",less than 0.7 °C
same,REM sleep during 2-4 hr after the infusion,cats [2],completely suppressed
same,SWS after the initial period of sleep suppression,cats [2],abnormally long period of deep SWS
same,number of episodes of SWS having durations of 1-8 min,"rabbits [3]; hr 2 to hr 6 after administration, eight rabbits, FIG. 2",no significant effect
same,number of episodes of SWS having durations greater than 8 min,"rabbits [3]; hr 2 to hr 6 after administration, eight rabbits, FIG. 2, P<0.0125",increased
same,"amount required to induce a comparable increase of SWS for 6 hr, relative to the natural product (factor S)",rabbits [3]; intraventricular,roughly 10 times
same,hourly percentage of SWS,"rabbits [3]; intraventricular 75-150 pmol, for 6 hr or more after the infusion, control about 40%",about 60%
same,persistence of the effects,rabbits [3]; intraventricular infusion,6 to 12 h
same,"% SWS, 6 hr post infusion, Expt","rabbits [3]; intraventricular, dose 0.01 nmol",39 ± 4%
same,"% SWS, 6 hr post infusion, Expt","rabbits [3]; intraventricular, dose 0.05 nmol",49 ± 3%
same,% SWS Expt.,"rabbits [3]; intraventricular, dose 75 pmol, single rabbits, listed as AcMur--Ala--iGln",55% and 43%
same,"% SWS, 6 hr post infusion, Expt","rabbits [3]; intraventricular, dose 0.1 nmol",62 ± 7%
same,% SWS Expt.,"rabbits [3]; intraventricular, dose 120 pmol, single rabbits, listed as AcMur--Ala--iGln",94% and 69%
same,"Amplitude of slow wave, Expt.","rabbits [3]; intraventricular, dose 120 pmol, rms-rectified voltage of 0.5 to 4 Hz band, single rabbits, listed as AcMur--Ala--iGln",56 μV and 42 μV
same,% SWS Expt.,"rabbits [3]; intraventricular, dose 125 pmol, single rabbits, listed as AcMur--Ala--iGln",38% and 60%
same,"% SWS, 6 hr post infusion, Expt",rabbits [3]; [9],76 ± 7%
same,"% SWS, 6 hr post infusion, Expt","rabbits [3]; intraventricular, dose 10.0 nmol",65 ± 6%
same,deleterious effects,rabbits [3]; [10],did not cause deleterious effects
same,duration of excess SWS,rabbits [3]; [10],6 to 10 h
same,increase of SWS for 6 hr,rabbits [4],ca. 50%
same,time of return of sleep response to near control values,rabbits [5]; intravenous 150-200 nmol/kg,≤ 5 h
same,time of maximum sleep response after injection,"rabbits [5]; intravenous 150-200 nmol/kg (75-100 μg), FIG. 4",about 3 hr
same,side effects noted in some animals,"rabbits [5]; intravenous 150-200 nmol/kg, after 3 to 4 hr","abnormal lacrimation, nasal secretion, and inflammation"
same,time after which deleterious side effects occurred,"rabbits [5]; intravenous, doses sufficient to induce excess SWS and pyrexia",about 3 hr
same,average ΔT,rabbits [6]; AcMur-ala-igln alone (Table 1),1.9±0.2 °C
same,"ΔTmax, maximum increase in temperature",rabbits [6]; dose 75 pmol,2.8 °C and 1.6 °C
same,"ΔTmax, maximum increase in temperature",rabbits [6]; dose 125 pmol,1.1 °C and 1.5 °C
"CC(=O)N[C@H]1C(O)O[C@H](CO)[C@@H](O)[C@@H]1O[C@H](C)C(=O)O (some centres unmarked) [N-acetylmuramic acid, reference compound]",somnogenic effect,"rabbits [3]; summary of Table 2, intraventricular, rabbits",no effect
CC(=O)N[C@H]1C(O)O[C@H](CO)[C@@H](O)[C@@H]1O[C@H](C)C(=O)N(C)[C@@H](C)C(=O)N[C@H](CCC(=O)O)C(N)=O (stereo partly drawn) [NAc--Mur--(N--Me)--L-ala-D-igln],"% SWS, 6 hr post infusion, Expt",rabbits [3]; [11],32-47%
CC(=O)NC1C(O)OC(CO)C(O)C1OC(C)C(=O)NC(C)C(=O)NC(CCC(=O)O)C(N)=O [NAc--Mur--D-ala-D-igln],"% SWS, 6 hr post infusion, Expt",rabbits [3]; [12],35 ± 2%
same,"% SWS, 6 hr post infusion, Expt",rabbits [3]; [9],35 ± 2%
"CC(=O)N[C@H]1C(O)O[C@H](CO)[C@@H](O)[C@@H]1O[C@H](C)C(=O)N[C@@H](C)C(=O)N[C@H](CCC(N)=O)C(=O)O (stereo partly drawn) [NAc--Mur--L-ala-D-gln, NAc-Mur-L-ala-D-gln]","% SWS, 6 hr post infusion, Expt",rabbits [3]; [13],45 ± 1%
same,"% SWS, 6 hr post infusion, Expt","rabbits [3]; intraventricular, dose 20.0 nmol",58-66%
COC(=O)[C@@H](CCC(N)=O)NC(=O)[C@H](C)NC(=O)[C@@H](C)O[C@H]1[C@H](O)[C@@H](CO)OC(O)[C@@H]1NC(C)=O (stereo partly drawn) [NAc--Mur--L-ala-D-gln-alpha OMe],"% SWS, 6 hr post infusion, Expt",rabbits [3]; [12],31-45%
CCCCOC(=O)[C@@H](CCC(N)=O)NC(=O)[C@H](C)NC(=O)[C@@H](C)O[C@H]1[C@H](O)[C@@H](CO)OC(O)[C@@H]1NC(C)=O (stereo partly drawn) [NAc--Mur--L-ala-D-gln-n-Bu ester],"% SWS, 6 hr post infusion, Expt","rabbits [3]; intraventricular, dose 0.25 nmol",41-47%
CC(=O)N[C@H]1C(O)O[C@H](CO)[C@@H](O)[C@@H]1O[C@H](C)C(=O)N[C@@H](C)C(=O)N[C@H](CCC(N)=O)C(N)=O (stereo partly drawn) [NAc--Mur--L-ala-D-glu(NH2)--NH2],"% SWS, 6 hr post infusion, Expt",rabbits [3]; [13],43 ± 1%
"COC(=O)CC[C@@H](NC(=O)[C@H](C)NC(=O)C(C)O[C@H]1[C@H](O)[C@@H](CO)O[C@H](O)[C@@H]1NC(C)=O)C(=O)OC (stereo partly drawn) [NAc--Mur--L-ala-D-glu(OMe)--OMe, NAc-Mur-L-ala-D-glu(OMe)-OMe]","% SWS, 6 hr post infusion, Expt",rabbits [3]; [13],66 ± 4%
"CC(=O)N[C@H]1C(O)O[C@H](CO)[C@@H](O)[C@@H]1O[C@H](C)C(=O)N[C@@H](C)C(=O)N[C@H](CCC(=O)O)C(=O)O (stereo partly drawn) [NAc--Mur--L-ala-D-glu, NAc-Mur-L-ala-D-glu]","% SWS, 6 hr post infusion, Expt",rabbits [3]; [11],43 ± 3%
same,"% SWS, 6 hr post infusion, Expt",rabbits [3]; [13],51 ± 3%
"COC(=O)[C@@H](CCC(=O)O)NC(=O)[C@H](C)NC(=O)[C@@H](C)O[C@H]1[C@H](O)[C@@H](CO)OC(O)[C@@H]1NC(C)=O (stereo partly drawn) [NAc--Mur--L-ala-D-glu-alpha-OMe, NAc-Mur-L-ala-D-glu-alpha-OMe]","% SWS, 6 hr post infusion, Expt",rabbits [3]; [11],47-61%
same,"% SWS, 6 hr post infusion, Expt",rabbits [3]; [13],72 ± 4%
"COC(=O)CC[C@@H](NC(=O)[C@H](C)NC(=O)[C@@H](C)O[C@H]1[C@H](O)[C@@H](CO)OC(O)[C@@H]1NC(C)=O)C(N)=O (stereo partly drawn) [NAc--Mur--L-ala-D-igln-gamma-OMe, NAc-Mur-L-ala-D-igln-gamma-OMe]","% SWS, 6 hr post infusion, Expt",rabbits [3]; [13],56 ± 7%
CC(=O)N[C@H]1C(O)O[C@H](CO)[C@@H](O)[C@@H]1O[C@H](C)C(=O)N[C@@H](C)C(=O)N[C@@H](CCC(=O)O)C(N)=O (stereo partly drawn) [NAc--Mur--L-ala-L-igln],"% SWS, 6 hr post infusion, Expt",rabbits [3]; [11],38 ± 4%
CC(=O)N[C@H]1C(O)O[C@H](CO)[C@@H](O)[C@@H]1O[C@H](C)C(=O)N[C@@H](C)C(=O)N[C@H](CCC(=O)N[C@@H](CCC[C@@H](N)C(=O)O)C(=O)N[C@H](C)C(=O)N[C@H](C)C(=O)O)C(=O)O (stereo partly drawn) [NAc-Mur-L-ala-gamma-D-glu-m-DAP-D-ala-D-ala],"% SWS, 6 hr post infusion, Expt","rabbits [3]; intraventricular, dose 0.15 nmol",46 ± 3%
same,"% SWS, 6 hr post infusion, Expt",rabbits [3]; [11],65 ± 5%
"CC(=O)NC1C(OC2C(CO)OC(O)C(NC(C)=O)C2OC(C)C(=O)NC(C)C(=O)NC(CCC(=O)O)C(N)=O)OC(CO)C(O)C1O (centres unmarked) [Nac--glc-1,4-MDP, NAc-glucosaminyl-(1,4)-MDP]","% SWS, 6 hr post infusion, Expt",rabbits [3]; [11],60 ± 5%
CC(=O)Nc1ccc(O)cc1 [acetaminophen],effects on sleep or rectal temperature,rabbits [1]; AAP alone,no significant effects
same,hourly % SWS (mean ±SEM),"rabbits [1]; AAP alone, 10 mg/kg intravenous, six rabbits",41±3%
same,suppression of the pyrogenic (febrile) effects of AcMur-ala-igln by the antipyretic,rabbits [1],completely or partially suppressed
"CC(=O)Oc1ccccc1C(=O)O [aspirin, acetyl salicylic acid]",suppression of the pyrogenic (febrile) effects of AcMur-ala-igln by the antipyretic,rabbits [1],like suppression of the febrile response
COc1ccc2c(c1)c(CC(=O)O)c(C)n2C(=O)c1ccc(Cl)cc1 [indomethacin],"toxic reactions (diarrhea, lethargy, inhibition of normal sleep)",cats [7],toxic reactions
same,blocking of the pyrogenic or somnogenic effects of intraventricularly administered AcMur-ala-igln,"rabbits [1]; indomethacin: 10 out of 10 trials in six rabbits, acetaminophen: two rabbits",did not block
same,"toxic reactions (diarrhea, lethargy, inhibition of normal sleep)",rabbits [8],toxic reactions

# Reference: patent US4698330A, “Somnogenic compositions and method of use” (President & Fellows of Harvard College, priority 1983, dated 1987)
